Measured values published in article PMC12102759 (Protein Science : A Publication of the Protein Society, 2025).
Read-outs that look alike come from different tables or passages of the source.

Test system: G3BP1 NFT2
Format: binding, human
Conditions: library DMS-CoV, bait G3BP1 NFT2, prey N, listed as aa = residue placed at this position, column sums to 1

## RNAPRITFGGPSDSTG T7F (RNAPRIFFGGPSDSTG)
Peptide RNAPRITFGGPSDSTG
  DMS PSSM value, T (position 7): 0

## RNAPRITFGGPSDSTG G16L (RNAPRITFGGPSDSTL)
Peptide RNAPRITFGGPSDSTG
  DMS PSSM value, G (position 16): 0

## APRITFGGPSDSTGSN S12V (APRITFGGPSDVTGSN)
Peptide APRITFGGPSDSTGSN
  DMS PSSM value, S (position 12): 0.04482

## RNAPRITFGGPSDSTG S12R (RNAPRITFGGPRDSTG)
Peptide RNAPRITFGGPSDSTG
  DMS PSSM value, S (position 12): 0

## APRITFGGPSDSTGSN S15M (APRITFGGPSDSTGMN)
Peptide APRITFGGPSDSTGSN
  DMS PSSM value, S (position 15): 0.006693

## RNAPRITFGGPSDSTG F8M (RNAPRITMGGPSDSTG)
Peptide RNAPRITFGGPSDSTG
  DMS PSSM value, F (position 8): 0

## RNAPRITFGGPSDSTG A3N (RNNPRITFGGPSDSTG)
Peptide RNAPRITFGGPSDSTG
  DMS PSSM value, A (position 3): 0

## APRITFGGPSDSTGSN A1R (RPRITFGGPSDSTGSN)
Peptide APRITFGGPSDSTGSN
  DMS PSSM value, A (position 1): 0

## RNAPRITFGGPSDSTG S12D (RNAPRITFGGPDDSTG)
Peptide RNAPRITFGGPSDSTG
  DMS PSSM value, S (position 12): 0

## RNAPRITFGGPSDSTG A3F (RNFPRITFGGPSDSTG)
Peptide RNAPRITFGGPSDSTG
  DMS PSSM value, A (position 3): 0

## APRITFGGPSDSTGSN I4D (APRDTFGGPSDSTGSN)
Peptide APRITFGGPSDSTGSN
  DMS PSSM value, I (position 4): 0

## RNAPRITFGGPSDSTG I6P (RNAPRPTFGGPSDSTG)
Peptide RNAPRITFGGPSDSTG
  DMS PSSM value, I (position 6): 0

## RNAPRITFGGPSDSTG T15K (RNAPRITFGGPSDSKG)
Peptide RNAPRITFGGPSDSTG
  DMS PSSM value, T (position 15): 0

## RNAPRITFGGPSDSTG S14G (RNAPRITFGGPSDGTG)
Peptide RNAPRITFGGPSDSTG
  DMS PSSM value, S (position 14): 0

## APRITFGGPSDSTGSN S15R (APRITFGGPSDSTGRN)
Peptide APRITFGGPSDSTGSN
  DMS PSSM value, S (position 15): 0

## RNAPRITFGGPSDSTG T7V (RNAPRIVFGGPSDSTG)
Peptide RNAPRITFGGPSDSTG
  DMS PSSM value, T (position 7): 0

## RNAPRITFGGPSDSTG T15V (RNAPRITFGGPSDSVG)
Peptide RNAPRITFGGPSDSTG
  DMS PSSM value, T (position 15): 0

## APRITFGGPSDSTGSN S10G (APRITFGGPGDSTGSN)
Peptide APRITFGGPSDSTGSN
  DMS PSSM value, S (position 10): 0

## RNAPRITFGGPSDSTG I6S (RNAPRSTFGGPSDSTG)
Peptide RNAPRITFGGPSDSTG
  DMS PSSM value, I (position 6): 0

## APRITFGGPSDSTGSN F6M (APRITMGGPSDSTGSN)
Peptide APRITFGGPSDSTGSN
  DMS PSSM value, F (position 6): 0

## APRITFGGPSDSTGSN T5N (APRINFGGPSDSTGSN)
Peptide APRITFGGPSDSTGSN
  DMS PSSM value, T (position 5): 0

## APRITFGGPSDSTGSN I4P (APRPTFGGPSDSTGSN)
Peptide APRITFGGPSDSTGSN
  DMS PSSM value, I (position 4): 0

## APRITFGGPSDSTGSN T5S (APRISFGGPSDSTGSN)
Peptide APRITFGGPSDSTGSN
  DMS PSSM value, T (position 5): 0.002921

## APRITFGGPSDSTGSN G14Q (APRITFGGPSDSTQSN)
Peptide APRITFGGPSDSTGSN
  DMS PSSM value, G (position 14): 0.3116

## RNAPRITFGGPSDSTG G10F (RNAPRITFGFPSDSTG)
Peptide RNAPRITFGGPSDSTG
  DMS PSSM value, G (position 10): 0

## RNAPRITFGGPSDSTG G16S (RNAPRITFGGPSDSTS)
Peptide RNAPRITFGGPSDSTG
  DMS PSSM value, G (position 16): 0

## RNAPRITFGGPSDSTG G10S (RNAPRITFGSPSDSTG)
Peptide RNAPRITFGGPSDSTG
  DMS PSSM value, G (position 10): 0

## APRITFGGPSDSTGSN G8N (APRITFGNPSDSTGSN)
Peptide APRITFGGPSDSTGSN
  DMS PSSM value, G (position 8): 0

## APRITFGGPSDSTGSN G14M (APRITFGGPSDSTMSN)
Peptide APRITFGGPSDSTGSN
  DMS PSSM value, G (position 14): 0.3018

## APRITFGGPSDSTGSN S10Q (APRITFGGPQDSTGSN)
Peptide APRITFGGPSDSTGSN
  DMS PSSM value, S (position 10): 0.008177

## APRITFGGPSDSTGSN I4Y (APRYTFGGPSDSTGSN)
Peptide APRITFGGPSDSTGSN
  DMS PSSM value, I (position 4): 0

## APRITFGGPSDSTGSN A1G (GPRITFGGPSDSTGSN)
Peptide APRITFGGPSDSTGSN
  DMS PSSM value, A (position 1): 0.004858

## APRITFGGPSDSTGSN R3N (APNITFGGPSDSTGSN)
Peptide APRITFGGPSDSTGSN
  DMS PSSM value, R (position 3): 0.0002259

## RNAPRITFGGPSDSTG T15F (RNAPRITFGGPSDSFG)
Peptide RNAPRITFGGPSDSTG
  DMS PSSM value, T (position 15): 0

## APRITFGGPSDSTGSN R3P (APPITFGGPSDSTGSN)
Peptide APRITFGGPSDSTGSN
  DMS PSSM value, R (position 3): 0.2686

## RNAPRITFGGPSDSTG P4K (RNAKRITFGGPSDSTG)
Peptide RNAPRITFGGPSDSTG
  DMS PSSM value, P (position 4): 0

## RNAPRITFGGPSDSTG G9S (RNAPRITFSGPSDSTG)
Peptide RNAPRITFGGPSDSTG
  DMS PSSM value, G (position 9): 0

## RNAPRITFGGPSDSTG P11R (RNAPRITFGGRSDSTG)
Peptide RNAPRITFGGPSDSTG
  DMS PSSM value, P (position 11): 0

## RNAPRITFGGPSDSTG S14M (RNAPRITFGGPSDMTG)
Peptide RNAPRITFGGPSDSTG
  DMS PSSM value, S (position 14): 0.3095

## APRITFGGPSDSTGSN P2S (ASRITFGGPSDSTGSN)
Peptide APRITFGGPSDSTGSN
  DMS PSSM value, P (position 2): 0.0005858

## RNAPRITFGGPSDSTG G16E (RNAPRITFGGPSDSTE)
Peptide RNAPRITFGGPSDSTG
  DMS PSSM value, G (position 16): 0

## APRITFGGPSDSTGSN D11A (APRITFGGPSASTGSN)
Peptide APRITFGGPSDSTGSN
  DMS PSSM value, D (position 11): 0.0135

## RNAPRITFGGPSDSTG D13M (RNAPRITFGGPSMSTG)
Peptide RNAPRITFGGPSDSTG
  DMS PSSM value, D (position 13): 0

## RNAPRITFGGPSDSTG
Peptide RNAPRITFGGPSDSTG
  DMS PSSM value, A (position 3): 0
  DMS PSSM value, D (position 13): 0
  DMS PSSM value, F (position 8): 1
  DMS PSSM value, G (position 9): 0
  DMS PSSM value, G (position 10): 0
  DMS PSSM value, G (position 16): 0
  DMS PSSM value, I (position 6): 0
  DMS PSSM value, N (position 2): 0
  DMS PSSM value, P (position 4): 0
  DMS PSSM value, P (position 11): 1
  DMS PSSM value, R (position 5): 0
  DMS PSSM value, S (position 12): 0
  DMS PSSM value, S (position 14): 0
  DMS PSSM value, T (position 7): 0
  DMS PSSM value, T (position 15): 0

## RNAPRITFGGPSDSTG T7N (RNAPRINFGGPSDSTG)
Peptide RNAPRITFGGPSDSTG
  DMS PSSM value, T (position 7): 0

## APRITFGGPSDSTGSN S12N (APRITFGGPSDNTGSN)
Peptide APRITFGGPSDSTGSN
  DMS PSSM value, S (position 12): 0.001178

## RNAPRITFGGPSDSTG F8V (RNAPRITVGGPSDSTG)
Peptide RNAPRITFGGPSDSTG
  DMS PSSM value, F (position 8): 0

## APRITFGGPSDSTGSN P2V (AVRITFGGPSDSTGSN)
Peptide APRITFGGPSDSTGSN
  DMS PSSM value, P (position 2): 0

## APRITFGGPSDSTGSN T13P (APRITFGGPSDSPGSN)
Peptide APRITFGGPSDSTGSN
  DMS PSSM value, T (position 13): 0.005019
